Test results reported in patent publication US11110075B2, “Use of daphnetin in improving function of aortic endothelial cell” (XI'AN JIAOTONG UNIVERSITY, priority 2019, dated 2021).

Key:
[1] = test system: human aortic endothelial cells (HAECs); assay: MTT assay, viability of HAECs inhibited by palmitic acid; format: cell-based; details: HAECs pretreated with 10 μM daphnetin 24 h, then 500 μM palmitic acid 24 h; vs palmitic acid treated cells without daphnetin; FIG. 1
Description: (§1) Human aortic endothelial cells (HAECs) were purchased from Shanghai Bioleaf Biotech Co., Ltd. Palmitic acid (PA) was purchased from SIGMA Company. A palmitic acid solution having a concentration of 500 μM was prepared by dissolving palmitic acid in water. A cell culture incubator was adopted to culture the cells in a temperature-constant, humidified, sterile condition. The cells were cultured in wells of culture plates at an atmosphere of 95% air and 5% CO2 at 37° C. in the incubator. The experiments were performed on different experimental groups of cells.
The HAECs that were previously cultured in a 12-well cell culture plates were divided into 6 different experimental groups and respectively applied with daphnetin in different concentrations, 0 μM, 1 μM, 10 μM, 50 μM, 100 μM, and 200 μM, all followed with an 24-hour incubation. Then, each of the 6 groups of cells was further divided into two subgroups; one was applied with 500 μM palmitic acid, the other was not, and all followed with another 24-hour incubation.
An MTT assay was performed to all groups of cells. […] The absorbance was measured at a wavelength of 490 nm in a spectrophotometer. The absorbance of this colored solution can be quantified by measuring at a certain wavelength (usually between 500 and 600 nm) by a spectrophotometer.

[2] = test system: mitochondrial membrane fusion related protein Mfn1; assay: Western blot protein detection of Mfn1 in palmitic acid treated HAECs; format: cell-based, human; details: FIG. 3A, 3B
Description: (§2) Human aortic endothelial cells (HAECs) were purchased from Shanghai Bioleaf Biotech Co., Ltd. Palmitic acid (PA) was purchased from SIGMA Company. A palmitic acid solution having a concentration of 500 μM was prepared by dissolving palmitic acid in water. A cell culture incubator was adopted to culture the cells in a temperature-constant, humidified, sterile condition. The cells were cultured in wells of culture plates at an atmosphere of 95% air and 5% CO2 at 37° C. in the incubator. The experiments were performed on different experimental groups of cells. The HAECs that were previously cultured in a 6-well cell culture plate were divided into 3 different experimental groups, the control (Ctrl) group, the PA group, and the DAP+PA group. The cells of the DAP+PA group were applied with daphnetin in a concentration of 100 μM followed with a 24-hour incubation. Then, the cells of both the PA group and the DAP+PA group were applied with 500 μM palmitic acid, all followed with another 24-hour incubation. The protein detection was respectively carried out on each group of cells as follows. The medium for cell culture in the wells was removed. 150 μL of IP lysis buffer was added to each well of the culture plate. […] The supernatants were collected, and the proteins therein were quantified by bicinchoninic acid (BCA) assay, and normalized. […] Target proteins were detected by chemiluminescence.

[3] = test system: interleukin-6 (IL-6) mRNA; assay: IL-6 mRNA level detection by RT-PCR in palmitic acid treated HAECs; format: cell-based, human; details: FIG. 2
Description: as §1
The HAECs that were previously cultured in a 12-well cell culture plate were divided into 4 different experimental groups and respectively applied with daphnetin in the respective concentrations, 0 μM, 0 μM, 50 μM, 100 μM, and all followed with an 24-hour incubation. Then, the last 3 groups of cells were respectively applied with 500 μM palmitic acid, the first was not, and all followed with another 24-hour incubation. The detecting of mRNA levels corresponding to interleukin-6 (IL-6) was respectively carried out on each group of cells by using reverse transcription RNA and real-time quantitative polymerase chain reaction (PCR), and the specific method is as follows:
The medium for cell culture in the wells was removed. 500 μL of TRIzol™ reagent was added to each well, and the culture plate was then shaken at room temperature for 5 minutes. Then the cells in the wells were collected and transferred to a 1.5 mL eppendorf (EP) tube. 200 μl (taking […] of total volume of the substance in the EP tube) of chloroform was then added to the EP tube for extraction of […]. The samples were then vigorously stirred for 15 seconds, rested for 15 minutes at room temperature, and then centrifuged at a relative centrifugal force of 12,000 g for 10 minutes at 4° C. […] The concentration of the solution was measured by an ultraviolet spectrophotometer. […]

[4] = test system: mitochondrial membrane fusion related protein Mfn2; assay: Western blot protein detection of Mfn2 in palmitic acid treated HAECs; format: cell-based, human; details: 500 μM palmitic acid 24 h (PA group) vs control group, FIG. 3A, 3B
Description: as §2

Structure (SMILES) | relative cell viability [1] | relative protein expression level of Mfn1 ([2]; 100 μM daphnetin 24 h then 500 μM palmitic acid 24 h (DAP+PA group) vs PA group) | concentration dependence of inhibition of IL-6 mRNA level ([3]; HAECs pretreated with 50 μM or 100 μM daphnetin, then 500 μM palmitic acid) | mRNA level corresponding to IL-6 ([3]; HAECs pretreated with 100 μM daphnetin 24 h, then 500 μM palmitic acid 24 h, vs palmitic acid alone) | expression of Mfn1 ([2]; 500 μM palmitic acid 24 h (PA group) vs control group) | increase of mRNA level corresponding to IL-6 ([3]; HAECs, 500 μM palmitic acid 24 h without daphnetin, vs control group) | expression of Mfn2 [4]
O=c1ccc2ccc(O)c(O)c2o1 [daphnetin, 7,8-dihydroxycoumarin] | higher viabilities | significantly increasing | inhibition effect increases with the concentration | significantly decreased | – | – | –
CCCCCCCCCCCCCCCC(=O)O [palmitic acid] | – | – | – | – | reducing the expression | about 20 times | reducing the expression
